pEC50: −log10 of the molar value.
Assays:
[1] = system: Sil-15 cells containing a RARE driving a lacZ reporter; experiment: X-Gal-based RA reporter assay (genomic response); format: cell-based; set-up: genomic response Emax (±95% CI): unit not given here; conditions: for genomic response Emax (±95% CI) / pEC50: Sil-15 reporter cells; for genomic response Emax (±95% CI): absorbance at 650 nm; for genomic EC50 compared with ATRA: nonoverlapping 95% CI; for pEC50: read-out: genomic response EC50 (±95% CI), overnight, 10^–6 to 10^–14 M
Description: Following chemical design and synthesis, the synthetic retinoid library was screened for genomic and nongenomic biological activities and compared to the response of the endogenous retinoid, ATRA. In these assays, the EC50 value represented the concentration of retinoid that gave half-maximal response (potency), while the E max value represented the maximum response achievable from the retinoid (efficacy).
The transcriptional genomic activity of the retinoids was quantified using Sil-15 cells containing a RARE driving a lacZ reporter. […] Twenty-two of the synthetic retinoids were effective in inducing genomic activity. […] In addition, the retinoids varied in their efficacies.
The Sil-15 cell line was used in the X-gal RA reporter assay described below. The cells were grown in Dulbecco’s modified Eagle’s medium (DMEM) containing 10% fetal bovine serum (FCS) (Invitrogen/Gibco), 0.6% penicillin-streptomycin (Gibco) and 0.8 mg/mL G418 sulfate (Sigma) for selection. They were maintained in a humidified atmosphere containing 5% CO2 at 37 °C. The medium was changed three times a week and the cells were passaged at 70% confluence using 0.05% trypsin-EDTA.
Sil-15 cells are F9 teratocarcinoma cells stably transfected with a plasmid containing the LacZ gene under the control of a DR5-type RA response element (RARE). The reporter cell line was used to detect the transcriptional genomic activity of ATRA and other retinoids by colorimetrically quantifying the insoluble blue product generated by β-galactosidase from X-gal during the assay. The assay was performed by plating 100,000 cells per well in the 0.1% gelatin-coated 96-well plates and leaving them to attach overnight. The ATRA/retinoids dilutions ranging from 10^–6 to 10^–14 M were incubated on the reporter cells overnight at 37 °C, in 5% CO2. A standard curve of ATRA was included in each experiment to ensure the reproducibility of the results between assays performed on different days. All the assays for ATRA as well as the retinoids were quantified in triplicate. Serial dilutions of retinoids were prepared from a stock solution under red/orange light. The stock solutions prepared in DMSO for each retinoid varied depending on the solubility of each compound. Each stock was stored at −20 °C and protected from light. The next day, Sil-15 cells were washed with PBS, fixed with 1% glutaraldehyde and 1 mM MgCl2 solution for 15 min, and developed in X-gal developing solution (0.2% X-Gal, 1 mM MgCl2, 3.3 mM potassium ferricyanide and 3.3 mM potassium ferrocyanide in PBS). The plates were read on an E max microplate reader (Molecular Devices) at 650 nm.
(§1) All data are presented as mean ± SEM of three independent experiments with biological triplicates. Statistical analyses were performed in Microsoft Office Excel 2019 or GraphPad Prism 7.0c version (Prism, GraphPad Software, San Diego, CA). Neurite outgrowth data were analyzed by one-way ANOVA with Newman-Keuls multiple comparison test as appropriate; P value <0.05 was considered statistically significant. *P < 0.05, **P < 0.01. Data for X-Gal and ERK1/2 phosphorylation were analyzed using sigmoidal dose–response analysis of log (agonist) versus response curve (stimulation).

SH-SY5Y cells = experiment: Neurite outgrowth; format: cell-based, human; conditions: 10 nM, 5 days
Procedure: Following the characterization of retinoids for their genomic and nongenomic activities, the ability of retinoids to differentiate and induce neurite outgrowth in the neuroblastoma cell line, SH-SY5Y cells, was examined (Figure ). Neurite outgrowth can be induced in this cell line by ATRA at 10 μM.
(§2) SH-SY5Y cell line as used in ERK phosphorylation and neurite outgrowth assays described below. The cells were grown in DMEM containing 10% FCS at 37 °C with 5% CO2. The medium was changed three times a week and the cells were passaged at 70% confluence using 0.05% trypsin-EDTA.
SH-SY5Y cells were plated at 10,000 cells/well in 12-well plates containing 16 mm acid-treated/poly L-lysine-coated glass coverslips. After 24 h, retinoids were added to the medium and tested at two different concentrations, 10 μM and 10 nM, with a final DMSO concentration of 0.01 or 0.0001%, respectively. The plates were incubated for 5 days at 5% CO2/37 °C. All retinoid concentrations were tested in triplicate. Cells were fixed using 4% paraformaldehyde and stained for β-III tubulin (1:1000; Sigma). For each neurite outgrowth experiment, 3 coverslips (in 3 wells) were used. ImageJ software with the NeuronJ plugin was used to quantify neurite outgrowth on stained cells in each of the 10 randomly selected images of each coverslip taken using a Nikon Eclipse E400 fluorescence microscope. The average neurite length was calculated for each image by dividing total neurite length by the total number of neurites per image.
as §1

[2] = system: ERK1/2 phosphorylation in SH-SY5Y cells; experiment: ERK1/2 phosphorylation (nongenomic response), AlphaScreen SureFire; format: cell-based, human; conditions: for pEC50: Homo sapiens, read-out: nongenomic response EC50 (±95% CI); for pEC50 / nongenomic response Emax (±95% CI): SH-SY5Y cells, 1 h; for nongenomic E max compared with ATRA: nonoverlapping 95% CI
Procedure: After screening the retinoids for genomic responses, they were tested for their nongenomic ability to rapidly phosphorylate ERK1/2 in the SH-SY5Y cell line. ATRA is known as a potent activator of ERK1/2 − and was used as the standard for comparison. […] The efficacies of the remaining seven retinoids were similar to ATRA.
as §2
To quantify ERK1/2 phosphorylation, SH-SY5Y cells (100,000 cells/well) were plated onto 96-well plates and serum-starved for 24 h in DMEM. Cells were assayed in serum-free DMEM and stimulated for 60 min at 37 °C in a humidified atmosphere. Retinoids were tested at concentrations ranging from 10 to 4 to 10–11 M and at a final concentration of 0.1% DMSO. At the end of the assay, the medium was removed, and cells were lysed with lysis buffer supplied in the AlphaScreen SureFire ERK1/2 kit (PerkinElmer). The assay was performed in 384-well white Proxiplates according to the manufacturer’s instructions and using the beads supplied in the protein A general IgG detection kit (PerkinElmer). Briefly, 4 μL samples were incubated with 7 μL of the freshly prepared mixture containing donor and acceptor beads. Plates were incubated at room temperature and read with the Envision system (PerkinElmer Life Sciences) using AlphaScreen settings.
as §1

| pEC50 [1] | pEC50 [2] | SMILES | genomic response Emax (±95% CI) [1] | genomic EC50 compared with ATRA [1] | induction of neurite outgrowth compared with ATRA (SH-SY5Y cells) | nongenomic response Emax (±95% CI) [2] | nongenomic E max compared with ATRA [2] |
| --- | --- | --- | --- | --- | --- | --- | --- |
| 9.89 | 7.51 | CC1(C)CCC(C)(C)c2cc(C#Cc3ccc(C(=O)O)cc3)ccc21 [EC23, reference compound] | 169 (±10.8) | significantly lower EC50 than ATRA | induced significant neurite outgrowth compared to ATRA | 92.5 (±6.96) | E max values significantly higher than ATRA |
| 8.98 | 7.48 | CC1=C(/C=C/C(C)=C/C=C/C(C)=C/C(=O)O)C(C)(C)CCC1 [ATRA, all-trans retinoic acid, reference compound] | 170 (±5.65) | – | does not significantly induce such outgrowth | 48.6 (±1.85) | – |
| 8.27 | 7.04 | COc1cc2c(cc1C#Cc1ccc(C(=O)O)cc1F)C(C)(C)CCC2(C)C [Compound 21, 3-Fluoro-4-[2-(3-methoxy-5,5,8,8-tetramethyl-5,6,7,8-tetrahydronaphthalen-2-yl)ethynyl]benzoic Acid] | – | significantly higher EC50 values than ATRA | induced neurite outgrowth but not significantly compared to ATRA | 36.9 (±2.86) | E max values significantly lower than ATRA |

From publication PMC12163635, “Synthetic Retinoids for the Modulation of Genomic and Nongenomic Processes in Neurodegenerative Diseases” (ACS Omega, 2025)
